In US7084176B2, “N-arylphenylacetamide derivatives and medicinal compositions containing the same” (Dainippon Pharmaceutical Co., Ltd., priority 2001, dated 2006):

Test system: male Std:ddY mice
Assay: Phenyl-1,4-benzoquinone-induced writhing test
Type: in vivo
Conditions: for inhibition in vivo at 10 mg/kg / ED50: Mus musculus, po; for inhibition in vivo at 10 mg/kg: 1 h, read-out: Inhibitory percentage (%); for inhibition in vivo at 10 mg/kg / Inhibitory percentage (%): orally administered at a dose of 10 mg/kg, 60 minutes before PBQ; for ED50 / ED50 (mg/kg po): oral administration, logit analysis; for ED50 / ED50 (mg/kg po) / Inhibitory percentage (%): writhing inhibition; for ED50: read-out: ED50 (mg/kg po)
Experimental: Phenyl-1,4-benzoquinone-induced Writhing Test Referring to the method disclosed in Proc. Soc. exp. Biol. […] For oral administration, a test compound was suspended in 0.5% tragacanth solution. […] In the control group, a physiological saline solution containing 10% Tween 80 and 10% ethanol was administered in the case of subcutaneous administration, or a 0.5% tragacanth solution was administered in the case of oral administration. The number of writhing movements in the test compound-treated group was compared with that in the control group, and the writhing inhibitory percentage was calculated therefrom and considered as an analgesic effect. Writhing inhibitory percentage (%)=[(A−B)/A]×100 In the above equation, A means the number of writhing movements in the control group, and B means the number of writhing movements in the test compound-treated group. From the writhing inhibitory percentage of the test compound, ED50 (mg/kg) was calculated by logit analysis.

Compound	inhibition in vivo at 10 mg/kg	ED50	also measured
COc1cc(CC(=O)Nc2cccc(-c3ccc(F)cc3)c2)ccc1OCCN [Example 124, 4-(2-aminoethoxy)-N-[3-(4-fluorophenyl)phenyl]-3-methoxyphenylacetamide]	100%	≤ 1 mg/kg	ED50 (mg/kg po) (listed as Ex. 124): 0.71 mg/kg
COc1cc(CC(=O)Nc2cccc(-c3ccccc3Cl)c2)ccc1OCCN [Example 125, 4-(2-aminoethoxy)-N-[3-(2-chlorophenyl)phenyl]-3-methoxyphenylacetamide]	93%	≤ 1 mg/kg	ED50 (mg/kg po) (listed as Ex. 125): 0.71 mg/kg
COc1cc(CC(=O)Nc2cccc(-c3cccc(Cl)c3)c2)ccc1OCCN [Example 126, 4-(2-aminoethoxy)-N-[3-(3-chlorophenyl)phenyl]-3-methoxyphenylacetamide]	89.9%	2.19 mg/kg	
COc1cc(CC(=O)Nc2cccc(-c3cc(F)cc(F)c3)c2)ccc1OCCN [Example 129, 4-(2-aminoethoxy)-N-[3-(3,5-difluorophenyl)phenyl]-3-methoxyphenylacetamide]	76.9%	1.89 mg/kg	
COc1cc(CC(=O)Nc2cccc(-c3ccccc3C)c2)ccc1OCCN [Example 131, 4-(2-aminoethoxy)-3-methoxy-N-[3-(2-methylphenyl)phenyl]-phenylacetamide]	100%	1.1 mg/kg	
COc1cc(CC(=O)Nc2cccc(-c3c(C)cc(C)cc3C)c2)ccc1OCCN [Example 133, 4-(2-aminoethoxy)-3-methoxy-N-[3-(2,4,6-trimethylphenyl)-phenyl]phenylacetamide]	94%	1.28 mg/kg	
COc1cc(CC(=O)Nc2cccc(-c3cccc(C(C)C)c3)c2)ccc1OCCN [Example 136, 4-(2-aminoethoxy)-N-[3-(3-isopropylphenyl)phenyl]-3-methoxyphenylacetamide]	99%	3.11 mg/kg	
COc1cc(CC(=O)Nc2cccc(-c3ccc(C(F)(F)F)cc3)c2)ccc1OCCN [Example 140, 4-(2-aminoethoxy)-3-methoxy-N-[3-(4-trifluoromethylphenyl)-phenyl]phenylacetamide]	91%	2.18 mg/kg	
COc1cc(CC(=O)Nc2cccc(-c3ccccc3C(F)(F)F)c2)ccc1OCCN [Example 142, 4-(2-aminoethoxy)-3-methoxy-N-[3-(2-trifluoromethylphenyl)-phenyl]phenylacetamide]	98.9%	1.19 mg/kg	
COc1cc(CC(=O)Nc2cccc(-c3ccccc3-c3ccccc3)c2)ccc1OCCN [Example 143, 4-(2-aminoethoxy)-3-methoxy-N-[3-(2-phenylphenyl)phenyl]-phenylacetamide]	73.2%	3.72 mg/kg	
COc1cc(CC(=O)Nc2cccc(-c3cccc(-c4ccccc4)c3)c2)ccc1OCCN [Example 145, 4-(2-aminoethoxy)-3-methoxy-N-[3-(3-phenylphenyl)phenyl]-phenylacetamide]	85.9%		
COC(=O)c1cccc(-c2cccc(NC(=O)Cc3ccc(OCCN)c(OC)c3)c2)c1 [Example 146, 4-(2-aminoethoxy)-N-[3-(3-methoxycarbonylphenyl)phenyl]-3-methoxyphenylacetamide]	76.9%	2.68 mg/kg	
COc1cc(CC(=O)Nc2cccc(-c3cccc(OC(F)(F)F)c3)c2)ccc1OCCN [Example 150, 4-(2-aminoethoxy)-3-methoxy-N-[3-(3-trifluoromethoxyphenyl)-phenyl]phenylacetamide]	100%	1.32 mg/kg	
COc1cc(CC(=O)Nc2cccc(-c3ccccc3SC)c2)ccc1OCCN [Example 158, 4-(2-aminoethoxy)-3-methoxy-N-[3-(2-methylthiophenyl)-phenyl]phenylacetamide]	95.1%	2.12 mg/kg	
COc1cc(CC(=O)Nc2cccc(-c3ccsc3)c2)ccc1OCCN [Example 161, 4-(2-aminoethoxy)-3-methoxy-N-[3-(thiophen-3-yl)phenyl]-phenylacetamide]	79.4%	2.79 mg/kg	
COc1cc(CC(=O)Nc2cccc(-c3cccc4ccccc34)c2)ccc1OCCN [Example 163, 4-(2-aminoethoxy)-3-methoxy-N-[3-(naphthalen-1-yl)phenyl]-phenylacetamide]	87.9%	1.61 mg/kg	
COc1cc(CC(=O)Nc2cccc(-c3cc4ccccc4o3)c2)ccc1OCCN [Example 166, 4-(2-aminoethoxy)-N-[3-(benzofuran-2-yl)phenyl]-3-methoxyphenylacetamide]	96%	2.4 mg/kg	

Compound	inhibition in vivo at 10 mg/kg	ED50	also measured
COc1cc(CC(=O)Nc2cccc(-c3cccc(C(C)(C)C)c3)c2)ccc1OCCN [Example 169, 4-(2-aminoethoxy)-N-[3-(3-tert-butylphenyl)phenyl]-3-methoxyphenylacetamide]	100%	1.29 mg/kg	
COc1cc(CC(=O)Nc2cc(-c3ccccc3)ccc2F)ccc1OCCN [Example 170, 4-(2-aminoethoxy)-N-[(2-fluoro-5-phenyl)phenyl]-3-methoxyphenylacetamide]			ED50 (mg/kg po): 1.06 mg/kg; Inhibitory percentage (%): 87.9%
COc1cc(CC(=O)Nc2cc(-c3ccccc3)cc(F)c2OC)ccc1OCCN [Example 171, 4-(2-aminoethoxy)-N-[(2-methoxy-3-fluoro-5-phenyl)phenyl]-3-methoxyphenylacetamide]			ED50 (mg/kg po) (listed as Ex. 171): 0.96 mg/kg; Inhibitory percentage (%): 94.0%
COc1cc(CC(=O)Nc2cc(-c3ccccc3)ccc2C)ccc1OCCN [Example 172, 4-(2-aminoethoxy)-N-[(2-methyl-5-phenyl)phenyl]-3-methoxyphenylacetamide]			ED50 (mg/kg po): 4.42 mg/kg; Inhibitory percentage (%): 75.9%
COc1cc(CC(=O)Nc2ccc(C)c(-c3ccccc3)c2)ccc1OCCN [Example 173, 4-(2-aminoethoxy)-3-methoxy-N-[(3-phenyl-4-methyl)phenyl]-phenylacetamide]			ED50 (mg/kg po) (listed as Ex. 173): 0.87 mg/kg; Inhibitory percentage (%): 100%
COc1ccc(-c2ccccc2)cc1NC(=O)Cc1ccc(OCCN)c(OC)c1 [Example 177, 4-(2-aminoethoxy)-3-methoxy-N-[(2-methoxy-5-phenyl)phenyl]-phenylacetamide]			ED50 (mg/kg po): 3.41 mg/kg; Inhibitory percentage (%): 78.9%
COc1cc(CC(=O)Nc2cc(-c3ccccc3)cc(C(F)(F)F)c2)ccc1OCCN [Example 178, 4-(2-aminoethoxy)-3-methoxy-N-[(3-trifluoromethyl-5-phenyl)-phenyl]phenylacetamide]			ED50 (mg/kg po): 1.65 mg/kg; Inhibitory percentage (%): 100%
COc1cc(CC(=O)Nc2ccc(OC(F)(F)F)c(-c3ccccc3)c2)ccc1OCCN [Example 179, 4-(2-aminoethoxy)-3-methoxy-N-[(3-phenyl-4-trifluoromethoxy)-phenyl]phenylacetamide]			ED50 (mg/kg po) (listed as Ex. 179): 0.95 mg/kg; Inhibitory percentage (%): 100%
COc1cc(CC(=O)Nc2cc(-c3ccccc3)c(C)c(-c3ccccc3)c2)ccc1OCCN [Example 181, 4-(2-aminoethoxy)-3-methoxy-N-[(4-methyl-3,5-diphenyl)-phenyl]phenylacetamide]			ED50 (mg/kg po): 1.11 mg/kg; Inhibitory percentage (%): 80.9%
COc1cc(CC(=O)Nc2cccc(-c3cccc(C4CCCCC4)c3)c2)ccc1OCCN [Example 183, 4-(2-aminoethoxy)-N-[3-(3-cyclohexylphenyl)phenyl]-3-methoxyphenylacetamide]	83.5%	3.09 mg/kg	
COc1cc(CC(=O)Nc2cccc(-c3ccccc3C(C)(C)C)c2)ccc1OCCN [Example 184, 4-(2-aminoethoxy)-N-[3-(2-tert-butylphenyl)phenyl]-3-methoxyphenylacetamide]	100%	≤ 1 mg/kg	ED50 (mg/kg po) (listed as Ex. 184): 0.60 mg/kg
COc1cc(CC(=O)Nc2cccc([C@H]3CC[C@@H](C(C)(C)C)CC3)c2)ccc1OCCN [Example 194, 4-(2-aminoethoxy)-N-[3-[(cis)-4-tert-butylcyclohexan-1-yl]-phenyl]-3-methoxyphenylacetamide]	96.2%	1.05 mg/kg	
COc1cc(CC(=O)Nc2cccc([C@H]3CC[C@H](C(C)(C)C)CC3)c2)ccc1OCCN [Example 195, 4-(2-aminoethoxy)-N-[3-[(trans)-4-tert-butylcyclohexan-1-yl]-phenyl]-3-methoxyphenylacetamide]	77.7%		
COc1cc(CC(=O)Nc2cccc(N3CCCCC3)c2)ccc1OCCN [Example 197, 4-(2-aminoethoxy)-3-methoxy-N-[3-(piperidin-1-yl)phenyl]-phenylacetamide]	89.1%	5.26 mg/kg	
COc1cc(CC(=O)Nc2cccc(N3CCCC(C4CCCCC4)C3)c2)ccc1OCCN (centres unmarked) [Example 199, 4-(2-aminoethoxy)-N-[3-(3-cyclohexylpiperidin-1-yl)phenyl]-3-methoxyphenylacetamide]	71.6%		
COc1cc(CC(=O)Nc2cccc(N3CCCC(c4ccccc4)C3)c2)ccc1OCCN (centres unmarked) [Example 200, 4-(2-aminoethoxy)-3-methoxy-N-[3-(3-phenylpiperidin-1-yl)-phenyl]phenylacetamide]	84.2%		
